Paper PMC8878317, “Chemogenomics identifies acetyl-coenzyme A synthetase as a target for malaria treatment and prevention” (Cell Chemical Biology, 2022)

Legend:
HepG2 cells = assay: HepG2 cytotoxicity; assay type: cell-based; conditions: Homo sapiens, mammalian cell cytotoxicity
PfAcAS T648M = target: T1, PfAcAS T648M (Plasmodium falciparum, UniProt C6KTB4, T648M); assay: EnzChek assay, recombinant PfAcAS T648M; assay type: biochemical, P. falciparum
T1 sequence (C6KTB4 1-997 T648M): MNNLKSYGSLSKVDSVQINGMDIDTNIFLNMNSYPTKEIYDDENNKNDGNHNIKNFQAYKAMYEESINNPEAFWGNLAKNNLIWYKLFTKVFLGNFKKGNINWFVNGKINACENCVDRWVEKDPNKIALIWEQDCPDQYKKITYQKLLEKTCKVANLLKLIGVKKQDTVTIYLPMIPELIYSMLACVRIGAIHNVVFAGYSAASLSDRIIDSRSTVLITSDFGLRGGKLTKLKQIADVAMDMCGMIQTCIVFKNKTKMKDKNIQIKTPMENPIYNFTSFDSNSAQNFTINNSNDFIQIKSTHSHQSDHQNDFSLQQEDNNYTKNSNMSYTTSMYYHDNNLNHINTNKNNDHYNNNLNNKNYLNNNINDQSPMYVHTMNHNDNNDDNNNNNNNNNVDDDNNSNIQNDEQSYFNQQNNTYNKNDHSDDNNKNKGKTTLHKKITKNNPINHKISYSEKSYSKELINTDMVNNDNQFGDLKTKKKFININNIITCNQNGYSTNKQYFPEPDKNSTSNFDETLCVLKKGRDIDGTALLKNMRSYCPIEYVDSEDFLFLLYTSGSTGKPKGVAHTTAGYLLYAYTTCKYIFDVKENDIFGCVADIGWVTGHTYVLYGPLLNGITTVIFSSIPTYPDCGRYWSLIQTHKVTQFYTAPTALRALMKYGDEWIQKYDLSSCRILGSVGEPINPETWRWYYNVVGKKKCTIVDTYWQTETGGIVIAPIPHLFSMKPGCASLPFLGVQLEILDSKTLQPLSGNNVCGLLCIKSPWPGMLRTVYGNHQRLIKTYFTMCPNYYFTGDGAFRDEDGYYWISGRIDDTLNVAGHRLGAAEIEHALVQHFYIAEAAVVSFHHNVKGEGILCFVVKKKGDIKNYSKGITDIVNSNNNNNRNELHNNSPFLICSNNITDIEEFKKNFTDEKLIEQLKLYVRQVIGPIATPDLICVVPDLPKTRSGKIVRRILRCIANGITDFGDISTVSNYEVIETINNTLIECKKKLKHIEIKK
Procedure: Steady-state kinetic measurements were conducted at room temperature using a PheraStar plate reader (BMG). The first step of the reaction of PfAcAS, which produces inorganic pyrophosphate (PPi) that is converted to two molecules of inorganic phosphate using a pyrophosphatase enzyme, was continuously monitored using the EnzChek Phosphate Assay Kit, which gives an absorbance readout at 360 nm (Figure 4A) ([Webb, 1992]). […] By adding CoA, the reaction rapidly proceeds to the second step resulting in further release of pyrophosphate, making the EnzChek assay a suitable option to continuously monitor the activity of PfAcAS. Typical kinetic assays were carried out in clear, flat-bottom, polystyrene, 384-well plates (Greiner) in an 80 μL reaction volume containing 100 mM HEPES (pH7.4), 100 mM NaCl, 250 mM KCl, 50 mM MgCl2, 1 mM DTT, 0.004% Tween 20, 0.5 U/mL pyrophosphatase, 0.1 mM MESG, 0.5 U/mL PNP, 2 mM ATP, 2 mM acetate, 0.5 mM CoA and 5 nM recombinant PfAcAS WT or 10 nM recombinant PfAcAS A597V or T648M. Assays were performed by adding 40 μL of a 2-times concentrated substrate mixture including MESG to all wells, and the reactions started by adding 40 μL of a 2-times concentrated reaction mixture containing all other components. The reactions were carried out for 2 to 4 hr with absorbance readings at 360 nm every two to four minutes. Reaction rates were extracted from the linear phase of activity, usually using 10 to 20 points between times of 30 and 100 min of the reactions. Using a phosphate standard curve obtained under the same buffer conditions used for the PfAcAS reactions (Figure S5A), the rates were then converted to velocity per second, conversion of one nanomolar of phosphate, per nanomolar of enzyme, per second. The substrates Km values were determined by varying the concentration of one of the substrates at saturating concentration of the other two substrates. Steady-state data were fitted using the nonlinear, least-squares, curve-fitting programs of Sigma-Plot for Windows, version 14.0. Individual saturation curves were fit to Equation 1(Equation 1) v=VS/K+S where V is the maximal velocity, S is the substrate concentration and K is the Michaelis constant for the substrate (Km). Individual saturation curves displaying substrate inhibition were fit to Equation 2(Equation 2) v=VS/K+S×(1+S/Ks) where Ks is the substrate inhibition constant.
To determine the steady-state inhibition parameters and patterns associated with both inhibitors, PfAcAS activity was studied in the presence of variable concentrations of one substrate, ATP, acetate or CoA, fixed saturating concentration of the other two substrates (acetate and CoA, ATP and CoA, or ATP and acetate) and several fixed concentrations of inhibitor. Assay ready plates containing different concentrations of inhibitor were prepared using an Echo 550 acoustic dispenser (Labcyte Inc.). The assays were carried out as described in the previous section. […] For better comparison between both inhibitors and proteins, the ymin was fixed to zero and the ymax to 100. Inhibition data showing linear, competitive patterns in double-reciprocal plots were fit to Equation 4(Equation 4) v=VS/K(1+I/Ki)+S where Ki is the dissociation constant for the enzyme-inhibitor complex. Inhibition data showing linear, mixed inhibition patterns in double-reciprocal plots were fit to Equation 5(Equation 5) v=VS/K(1+I/Kis)+S(1+I/Kii) where Kis is the dissociation constant for the free enzyme-inhibitor complex and Kii is the dissociation constant for the enzyme-substrate-inhibitor complex. Inhibition data showing linear, uncompetitive patterns in double-reciprocal plots were fit to Equation 6(Equation 6) v=VS/K+S(1+I/Ki)

Structure (SMILES)	EC50 (HepG2 cells)	IC50 (PfAcAS T648M)	Hill, AcAS T648M (PfAcAS T648M)
O=C(NNC(=O)c1csnn1)c1ccc(Cl)cc1 [MMV084978]	> 50 µM	> 100 µM	
CCN(CC)S(=O)(=O)c1ccc(Cl)c(C(=O)Nc2ccc3nc(C)sc3c2)c1 [MMV019721]	> 50 µM	18 ± 3.2 µM	0.81 ± 0.12
